Laboratory results reported in patent publication US20210230178A1, “TRIOXACARCIN ANALOGS AND DIMERS AS POTENT ANTICANCER AGENTS” (William Marsh Rice University, priority 2017, published 2021).
Where two headings read alike, the source gives them in different places.

Assays:
[1] = system: MES SA (human uterine sarcoma); details: for IC50: read-out: IC50 MES SA
[2] = system: MES SA DX (human uterine sarcoma cell line with marked multidrug resistance); details: for IC50: read-out: IC50 MES SA DX
[3] = system: HEK 293T (human embryonic kidney cancer cell line); details: for IC50: read-out: IC50 HEK 293T
[4] = system: MES SA (human uterine sarcoma); assay: cells; details: 72 h, read-out: IC50 MES SA
[5] = system: MES SA DX (human uterine sarcoma cell line with marked multidrug resistance); assay: cells; details: 72 h, read-out: IC50 MES SA DX
[6] = system: HEK 293T (human embryonic kidney cancer cell line); assay: cells; details: 72 h, read-out: IC50 HEK 293T

| Compound | IC50 [1] | IC50 [2] | IC50 [3] | IC50 [4] | IC50 [5] | IC50 [6] | cytotoxic potency against MES SA, in words [1] | cytotoxic potency against MES SA DX, in words [2] | cytotoxic potency against HEK 293T, in words [3] |
| --- | --- | --- | --- | --- | --- | --- | --- | --- | --- |
| COc1c2c(c(O)c3c4c(c(C)cc13)C1OC3(C5OCCCO5)OC1[C@@](OC)(O4)[C@@]31CO1)C(=O)CCC2 (stereo partly drawn) [Trx13] | 0.56 nM | 0.42 nM | 0.4 nM | 0.53 nM | 0.38 nM | 0.5 nM |  |  |  |
| COc1c2c(c(O)c3c4c(c(C)cc13)C1OC3(C5OCCCO5)OC1[C@@](OCC=CCO[C@@]15Oc6c(c(C)cc7c(OC)c8c(c(O)c67)C(=O)CCC8)C6OC(C7OCCCO7)(OC61)[C@]51CO1)(O4)[C@@]31CO1)C(=O)CCC2 (stereo partly drawn) [Trx25, (1S,2S,3aS,4R,13aR,1′″S,2′″S,3a′″S,4′R,13a′″R)-13a,13a′-[(2E)-but-2-ene-1,4-diylbis(oxy)]bis[2-(1,3-dioxan-2-yl)-12-hydroxy-7-methoxy-5-methyl-3a,4,8,9,10,13a-hexahydro-11H-spiro[2,4-epoxyfuro[3,2-b]naphtho[2,3-h]chromene-1,2′-oxiran]-11-one]] | 235 nM | 429 nM | 105 nM |  |  |  |  |  |  |
| COc1c2c(c(OC(C)=O)c3c4c(c(C)cc13)[C@H]1O[C@]3(C5OCCCO5)O[C@@H]1[C@@](OC(C)=O)(O4)[C@@]31CO1)C(=O)CCC2 [Trx26, (1S,2S,3aS,4R,13aS)-2-(1,3-Dioxan-2-yl)-7-methoxy-5-methyl-11-oxo-3a,4,8,9,10,11-hexahydro-13aH-spiro[2,4-epoxyfuro[3,2-b]naphtho[2,3-h]chromene-1,2′-oxirane]-12,13a-diyl diacetate] |  |  |  | 67.4 nM | 60.3 nM | 11.6 nM | no significant loss of potency | no significant loss of potency | no significant loss of potency |
| COc1c2c(c(OC(C)=O)c3c4c(c(C)cc13)[C@H]1O[C@]3(C5OCCCO5)O[C@@H]1[C@@](OC)(O4)[C@@]31CO1)C(=O)CCC2 [Trx27, (1S,2S,3aS,4R,13aR)-2-(1,3-Dioxan-2-yl)-7,13a-dimethoxy-5-methyl-11-oxo-3a,8,9,10,11,13a-hexahydro-4H-spiro[2,4-epoxyfuro[3,2-b]naphtho[2,3-h]chromene-1,2′-oxiran]-12-yl acetate] |  |  |  | 2.15 nM | 1.43 nM | 1.24 nM | no significant loss of potency | no significant loss of potency | no significant loss of potency |
| (4R,5S,6R,10S)-8-{[(1S,2R)-2-(1,3-Dioxan-2-yl)-12-hydroxy-7-methoxy-5-methyl-11-oxo-3a,4,8,9,10,11-hexahydro-13aH-spiro[2,4-epoxyfuro[3,2-b]naphtho[2,3-h]chromene-1,2′-oxiran]-13a-yl]oxy}-4,6-dimethyl-2-oxo-1,3,7-trioxaspiro[4.5]dec-10-ylacetate [Trx22] | 5.74 nM | 56.9 nM | 4.2 nM |  |  |  |  |  |  |
